# Results published in ChEMBL document CHEMBL2380311 (Bioorg Med Chem Lett, 2013).
# Activity calls are given as the source filed them. The rule behind the calls is not given here.
# What was measured:
# [1] = biological target: Acetylcholinesterase (Electrophorus electricus, UniProt O42275)
# Description: Inhibition of electric eel AChE using acetylthiocholine iodide as substrate after 5 mins by Ellman's method
# [2] = biological target: Cholinesterase (Equus caballus, UniProt P81908)
# Description: Inhibition of equine serum BChE using butyrylthiocholine iodide as substrate after 5 mins by Ellman's method
# [3] = biological target: Cholinesterase (Equus caballus) (UniProt P81908); experiment: Mixed-type inhibition of equine serum BChE using butyrylthiocholine iodide as substrate by Lineweaver-Burk reciprocal plot analysis
# Cholinesterase (Equus caballus), sequence (P81908 whole entry): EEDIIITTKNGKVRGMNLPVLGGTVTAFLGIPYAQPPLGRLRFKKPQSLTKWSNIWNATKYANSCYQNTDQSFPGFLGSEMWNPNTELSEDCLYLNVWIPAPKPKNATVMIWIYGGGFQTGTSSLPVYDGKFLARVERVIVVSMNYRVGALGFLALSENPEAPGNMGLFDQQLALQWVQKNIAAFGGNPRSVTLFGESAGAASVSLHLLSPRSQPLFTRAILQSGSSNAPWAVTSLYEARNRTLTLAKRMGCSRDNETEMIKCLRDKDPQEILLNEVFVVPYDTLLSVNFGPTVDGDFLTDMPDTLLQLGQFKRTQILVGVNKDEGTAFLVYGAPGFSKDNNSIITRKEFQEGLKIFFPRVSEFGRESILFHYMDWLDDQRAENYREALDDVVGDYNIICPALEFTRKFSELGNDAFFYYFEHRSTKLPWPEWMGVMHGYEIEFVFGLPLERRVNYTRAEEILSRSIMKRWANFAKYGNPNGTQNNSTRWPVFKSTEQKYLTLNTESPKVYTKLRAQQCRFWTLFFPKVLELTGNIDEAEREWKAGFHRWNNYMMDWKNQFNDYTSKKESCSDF
# Cholinesterase, sequence (P81908 whole entry): as above
# Acetylcholinesterase, sequence (O42275 whole entry): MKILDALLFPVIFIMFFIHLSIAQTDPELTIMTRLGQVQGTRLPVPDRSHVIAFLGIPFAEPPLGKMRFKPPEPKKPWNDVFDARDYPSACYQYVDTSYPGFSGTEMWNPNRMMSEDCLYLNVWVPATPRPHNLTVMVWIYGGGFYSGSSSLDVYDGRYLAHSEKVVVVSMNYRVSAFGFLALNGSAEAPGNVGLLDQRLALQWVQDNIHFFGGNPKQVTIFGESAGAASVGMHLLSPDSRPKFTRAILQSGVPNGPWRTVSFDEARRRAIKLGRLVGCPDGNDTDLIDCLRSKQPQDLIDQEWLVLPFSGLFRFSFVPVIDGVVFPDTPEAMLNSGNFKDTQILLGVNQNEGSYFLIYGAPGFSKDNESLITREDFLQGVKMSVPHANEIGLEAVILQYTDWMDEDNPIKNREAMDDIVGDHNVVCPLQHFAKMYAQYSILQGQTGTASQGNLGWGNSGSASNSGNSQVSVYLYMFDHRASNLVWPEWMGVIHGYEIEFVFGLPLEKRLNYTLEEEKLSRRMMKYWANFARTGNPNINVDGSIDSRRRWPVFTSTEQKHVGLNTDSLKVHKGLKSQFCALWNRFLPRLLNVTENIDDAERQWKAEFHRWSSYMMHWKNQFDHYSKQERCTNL
Compound,IC50 [1],IC50 [2],inhibition [3]
CC(C(=O)NCCCNc1c2c(nc3ccccc13)CCCC2)c1ccc(-c2ccc(OCCCCO[N+](=O)[O-])cc2)c(F)c1 (stereo unspecified),357 nM,7.9 nM,
CC(C(=O)NCCCNc1c2c(nc3ccccc13)CCCC2)c1ccc(-c2ccc(OCCCO[N+](=O)[O-])cc2)c(F)c1 (stereo unspecified),189 nM,8.6 nM,
CC(C(=O)NCCCNc1c2c(nc3ccccc13)CCCC2)c1ccc(-c2ccccc2)c(F)c1 (stereo unspecified),345 nM,13.9 nM,
CC(C(=O)NCCCNc1c2c(nc3ccccc13)CCCC2)c1ccc(-c2ccc(OCCO[N+](=O)[O-])cc2)c(F)c1 (stereo unspecified),112 nM,8.1 nM,
CC(C(=O)NCCNc1c2c(nc3ccccc13)CCCC2)c1ccc(-c2ccc(OCCO[N+](=O)[O-])cc2)c(F)c1 (stereo unspecified),183 nM,9.9 nM,
CC(C(=O)NCCNc1c2c(nc3ccccc13)CCCC2)c1ccc(-c2ccc(OCCCO[N+](=O)[O-])cc2)c(F)c1 (stereo unspecified),341 nM,10 nM,
CC(C(=O)NCCCCNc1c2c(nc3ccccc13)CCCC2)c1ccc(-c2ccccc2)c(F)c1 (stereo unspecified),193 nM,11 nM,
CC(C(=O)NCCCNc1c2c(nc3ccccc13)CCCC2)c1ccc(-c2ccc(OCCCCCCO[N+](=O)[O-])cc2)c(F)c1 (stereo unspecified),1010 nM,8.1 nM,
CC(C(=O)NCCNc1c2c(nc3ccccc13)CCCC2)c1ccc(-c2ccccc2)c(F)c1 (stereo unspecified),715 nM,58.7 nM,
CC(C(=O)NCCCCNc1c2c(nc3ccccc13)CCCC2)c1ccc(-c2ccc(OCCO[N+](=O)[O-])cc2)c(F)c1 (stereo unspecified),227 nM,13.9 nM,
CC(C(=O)NCCCCNc1c2c(nc3ccccc13)CCCC2)c1ccc(-c2ccc(OCCCCO[N+](=O)[O-])cc2)c(F)c1 (stereo unspecified),641 nM,7.7 nM,
CC(C(=O)NCCCCNc1c2c(nc3ccccc13)CCCC2)c1ccc(-c2ccc(OCCCO[N+](=O)[O-])cc2)c(F)c1 (stereo unspecified),261 nM,10.6 nM,
CC(C(=O)NCCNc1c2c(nc3ccccc13)CCCC2)c1ccc(-c2ccc(OCCCCCCO[N+](=O)[O-])cc2)c(F)c1 (stereo unspecified),4310 nM,7.6 nM,Active
CC(C(=O)NCCCCNc1c2c(nc3ccccc13)CCCC2)c1ccc(-c2ccc(OCCCCCCO[N+](=O)[O-])cc2)c(F)c1 (stereo unspecified),1460 nM,3.9 nM,
CC(C(=O)NCCNc1c2c(nc3ccccc13)CCCC2)c1ccc(-c2ccc(OCCCCO[N+](=O)[O-])cc2)c(F)c1 (stereo unspecified),1350 nM,10.1 nM,
